Experimental data from patent US20260022094A1, “Compounds for the Treatment of Neurodegenerative Diseases” (Celgene Corporation, priority 2022, published 2026).

Target: T1, S1P5 receptors (Homo sapiens, UniProt Q9H228)
T1 construct: expressed in transfected cells; host or cells: CHO cells (membranes)
Experiment: [35S]-GTPγS binding assay on CHO-S1P5 membranes (S1P5 agonism)
Type: biochemical
Details: membranes of CHO cells expressing recombinant S1P5; measure of S1P5 agonism
Protocol: CHO cells expressing recombinant S1P5 receptors were cultured in 500 cm^2 culture trays and, once confluent, rinsed and detached with cell-lifting buffer (10 mM HEPES, 154 mM NaCl, 6.85 mM EDTA, pH 7.4). Cells were then pelleted by centrifugation, resuspended, and homogenized in membrane preparation buffer (10 mM HEPES and 10 mM EDTA, pH 7.4) using a Polytron PT 1200E homogenizer (Kinematica, Luzern, Switzerland). Cellular proteins were pelleted by centrifugation at 48,000×g at 4° C. for 30 minutes. The resulting supernatant was discarded, and the pellet was re-suspended again in membrane preparation buffer, homogenized for a second time, and then centrifuged again as described above. The final cellular protein pellet was suspended in ice cold resuspension buffer (10 mM HEPES and 0.1 mM EDTA, pH 7.4), divided into aliquots, and stored at −80° C. until use.
Functional binding assays for [^35S]-GTPγS were performed in 96-well non-binding surface plates with a final volume of 200 μL. The test compounds were serially diluted in DMSO and added to assay plates using a Tecan D300E digital printer with a total volume of 0.4 μL. The control sphingosine-1-phosphate (SIP) was prepared separately by preparing a 400 µM stock solution from a 100 nmol pellet of S1P in 10 mM Na2CO3 with 2% β-cyclodextrin. The serial dilution of S1P was done using complete assay buffer (20 mM HEPES, 10 mM MgCl2, 100 mM NaCl, 1 mM EDTA, 0.1% fatty acid free bovine serum albumin (BSA), and 30 μg/mL saponin, pH 7.4) and transferred to wells already containing 0.4 μL DMSO. All the wells were then loaded to a total volume of 40 μL of complete assay buffer, except the non-specific binding (NSB) wells. For NSB wells, 40 μL/well of 50 μM GTPγS (Sigma Aldrich, cat #G8634, St. Louis, MO) was added to wells containing 0.4 μL of DMSO. The assay was started by the addition of 120 μL/well of CHO-SIP receptor membrane solution containing 40 μg/mL of membrane protein, 16.67 μM guanosine diphosphate (GDP; Sigma Aldrich, cat #G7127, St. Louis, MO), and 2.5 mg/mL of WGA PVT SPA beads in complete buffer. Assay plates were then sealed and incubated at room temperature with gentle agitation for 30 minutes. Next, 40 μL/well of 1 nM of [^35S]-GTPγS (PerkinElmer, cat #NEG030X^250UC, Waltham, MA) in basic assay buffer (20 mM HEPES, 10 mM MgCl2, 100 mM NaCl, and 1 mM EDTA, pH7.4) was added to the assay plates to yield a final concentration of […] and the plates were further incubated for 40 minutes at room temperature with gentle agitation. The assay was terminated by centrifugation of the plates at 1000 rpm for 3 minutes using an Eppendorf 5810R centrifuge (Eppendorf, Hamburg, Germany) and G protein bound radioactivity was quantitated using a MicroBeta2 microplate scintillation counter (PerkinElmer, Waltham, MA). As G protein bound radioactivity directly correlates to receptor activation and coupling to the G protein, this assay is a measure of S1P5 agonism.

T1 sequence (Q9H228 whole entry): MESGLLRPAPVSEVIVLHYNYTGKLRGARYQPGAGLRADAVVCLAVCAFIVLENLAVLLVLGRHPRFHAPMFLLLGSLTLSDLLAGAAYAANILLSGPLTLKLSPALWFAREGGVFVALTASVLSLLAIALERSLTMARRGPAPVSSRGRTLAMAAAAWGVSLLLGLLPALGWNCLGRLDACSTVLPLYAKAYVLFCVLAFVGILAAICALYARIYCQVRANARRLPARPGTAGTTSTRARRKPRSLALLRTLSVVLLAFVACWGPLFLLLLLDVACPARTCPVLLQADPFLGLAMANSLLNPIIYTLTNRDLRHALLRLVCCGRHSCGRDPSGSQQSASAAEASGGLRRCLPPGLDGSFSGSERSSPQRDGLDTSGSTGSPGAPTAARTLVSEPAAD

Row | SMILES | EC50 [nM]
1 | Cc1cc(CCc2c(Cl)cccc2Cl)cc2c1C(N1CC(C)(O)C1)CC2 (single isomer, unassigned) [Compound 14b, 1-[5-[2-(2,6-dichlorophenyl)ethyl]-7-methyl-indan-1-yl]-3-methyl-azetidin-3-ol] | 1 to 10
2 | Cc1cc(OCc2c(Cl)cccc2Cl)cc2c1C(N1CC(C)(O)C1)CC2 (single isomer, unassigned) [Compound 15a, 1-[5-[(2,6-dichlorophenyl)methoxy]-7-methyl-indan-1-yl]-3-methyl-azetidin-3-ol] | 1 to 10
3 | Cc1cc(OCc2c(Cl)cccc2Cl)cc2c1C(N1CC(C)(O)C1)CC2 (single isomer, unassigned) [Compound 15b, 1-[5-[(2,6-dichlorophenyl)methoxy]-7-methyl-indan-1-yl]-3-methyl-azetidin-3-ol] | 1 to 10
4 | Cc1c(-c2ccc(C3CC3)c(Cl)c2)ccc2c1CCC2N1CC(C)(O)C1 (single isomer, unassigned) [Compound 16a, 1-[5-(3-chloro-4-cyclopropyl-phenyl)-4-methyl-indan-1-yl]-3-methyl-azetidin-3-ol] | 1 to 10
5 | Cc1c(-c2ccc(C3CC3)c(Cl)c2)ccc2c1CCC2N1CC(C)(O)C1 (single isomer, unassigned) [Compound 16b, 1-[5-(3-chloro-4-cyclopropyl-phenyl)-4-methyl-indan-1-yl]-3-methyl-azetidin-3-ol] | 1 to 10
6 | Cc1c(C#Cc2cccc(F)c2)ccc2c1CCC2N1CC(C)(O)C1 (single isomer, unassigned) [Compound 17a, 1-[5-[2-(3-fluorophenyl)ethynyl]-4-methyl-indan-1-yl]-3-methyl-azetidin-3-ol] | 10 to 100
7 | Cc1c(C#Cc2cccc(F)c2)ccc2c1CCC2N1CC(C)(O)C1 (single isomer, unassigned) [Compound 17b, 1-[5-[2-(3-fluorophenyl)ethynyl]-4-methyl-indan-1-yl]-3-methyl-azetidin-3-ol] | 10 to 100
8 | Cc1c(CCc2c(Cl)cccc2Cl)ccc2c1CCC2N1CC(C)(O)C1 (single isomer, unassigned) [Compound 18a, 1-[5-[2-(2,6-dichlorophenyl)ethyl]-4-methyl-indan-1-yl]-3-methyl-azetidin-3-ol] | 1 to 10
9 | Cc1c(CCc2c(Cl)cccc2Cl)ccc2c1CCC2N1CC(C)(O)C1 (single isomer, unassigned) [Compound 18b, 1-[5-[2-(2,6-dichlorophenyl)ethyl]-4-methyl-indan-1-yl]-3-methyl-azetidin-3-ol] | 1 to 10
10 | Cc1c(OCc2c(Cl)cccc2Cl)ccc2c1CCC2N1CC(C)(O)C1 (single isomer, unassigned) [Compound 19a, 1-[5-[(2,6-dichlorophenyl)methoxy]-4-methyl-indan-1-yl]-3-methyl-azetidin-3-ol] | 1 to 10
11 | Cc1c(OCc2c(Cl)cccc2Cl)ccc2c1CCC2N1CC(C)(O)C1 (single isomer, unassigned) [Compound 19b, 1-[5-[(2,6-dichlorophenyl)methoxy]-4-methyl-indan-1-yl]-3-methyl-azetidin-3-ol] | 1 to 10
12 | Cc1c(OCc2c(Cl)cccc2Cl)ccc2c1CCC2NCC(C)(C)O (single isomer, unassigned) [Compound 20a, 1-((5-((2,6-dichlorobenzyl)oxy)-4-methyl-2,3-dihydro-1H-inden-1-yl)amino)-2-methylpropan-2-ol] | 10 to 100
13 | Cc1c(OCc2c(Cl)cccc2Cl)ccc2c1CCC2NCC(C)(C)O (single isomer, unassigned) [Compound 20b, 1-((5-((2,6-dichlorobenzyl)oxy)-4-methyl-2,3-dihydro-1H-inden-1-yl)amino)-2-methylpropan-2-ol] | 100 to 1000
14 | Cc1cc2c(cc1-c1ccc(C3CC3)c(Cl)c1)CCC2N1CC(C)(O)C1 (single isomer, unassigned) [Compound 21a, 1-[5-(3-chloro-4-cyclopropyl-phenyl)-6-methyl-indan-1-yl]-3-methyl-azetidin-3-ol] | 10 to 100
15 | Cc1cc2c(cc1-c1ccc(C3CC3)c(Cl)c1)CCC2N1CC(C)(O)C1 (single isomer, unassigned) [Compound 21b, 1-[5-(3-chloro-4-cyclopropyl-phenyl)-6-methyl-indan-1-yl]-3-methyl-azetidin-3-ol] | 1 to 10
16 | Cc1cc2c(cc1C#Cc1cccc(F)c1)CCC2N1CC(C)(O)C1 (single isomer, unassigned) [Compound 22a, 1-[5-[2-(3-fluorophenyl)ethynyl]-6-methyl-indan-1-yl]-3-methyl-azetidin-3-ol] | 10 to 100
17 | Cc1cc2c(cc1C#Cc1cccc(F)c1)CCC2N1CC(C)(O)C1 (single isomer, unassigned) [Compound 22b, 1-[5-[2-(3-fluorophenyl)ethynyl]-6-methyl-indan-1-yl]-3-methyl-azetidin-3-ol] | 10 to 100
18 | Cc1cc2c(cc1CCc1c(Cl)cccc1Cl)CCC2N1CC(C)(O)C1 (single isomer, unassigned) [Compound 23a, 1-[5-[2-(2,6-dichlorophenyl)ethyl]-6-methyl-indan-1-yl]-3-methyl-azetidin-3-ol] | 10 to 100
19 | Cc1cc2c(cc1CCc1c(Cl)cccc1Cl)CCC2N1CC(C)(O)C1 (single isomer, unassigned) [Compound 23b, 1-[5-[2-(2,6-dichlorophenyl)ethyl]-6-methyl-indan-1-yl]-3-methyl-azetidin-3-ol] | 10 to 100
20 | Cc1cc2c(cc1OCc1c(Cl)cccc1Cl)CCC2N1CC(C)(O)C1 (single isomer, unassigned) [Compound 24a, 1-[5-[(2,6-dichlorophenyl)methoxy]-6-methyl-indan-1-yl]-3-methyl-azetidin-3-ol] | 1 to 10
21 | Cc1cc2c(cc1OCc1c(Cl)cccc1Cl)CCC2N1CC(C)(O)C1 (single isomer, unassigned) [Compound 24b, 1-[5-[(2,6-dichlorophenyl)methoxy]-6-methyl-indan-1-yl]-3-methyl-azetidin-3-ol] | 1 to 10
22 | Cc1cc2c(c(C)c1-c1ccc(C3CC3)c(Cl)c1)CCC2N1CC(C)(O)C1 (single isomer, unassigned) [Compound 25a, 1-(5-(3-chloro-4-cyclopropylphenyl)-4,6-dimethyl-2,3-dihydro-1H-inden-1-yl)-3-methylazetidin-3-ol] | 1 to 10
23 | Cc1cc2c(c(C)c1-c1ccc(C3CC3)c(Cl)c1)CCC2N1CC(C)(O)C1 (single isomer, unassigned) [Compound 25b, 1-(5-(3-chloro-4-cyclopropylphenyl)-4,6-dimethyl-2,3-dihydro-1H-inden-1-yl)-3-methylazetidin-3-ol] | 1 to 10
24 | Cc1cc(-c2ccc(C3CC3)c(Cl)c2)c(C)c2c1C(N1CC(C)(O)C1)CC2 (single isomer, unassigned) [Compound 26a, 1-[5-(3-chloro-4-cyclopropyl-phenyl)-4,7-dimethyl-indan-1-yl]-3-methyl-azetidin-3-ol] | 1 to 10
25 | Cc1cc(-c2ccc(C3CC3)c(Cl)c2)c(C)c2c1C(N1CC(C)(O)C1)CC2 (single isomer, unassigned) [Compound 26b, 1-[5-(3-chloro-4-cyclopropyl-phenyl)-4,7-dimethyl-indan-1-yl]-3-methyl-azetidin-3-ol] | 1 to 10
26 | Cc1c(-c2ccc(C3CC3)c(Cl)c2)cc2c(c1C)C(N1CC(C)(O)C1)CC2 (single isomer, unassigned) [Compound 27a, 1-(5-(3-chloro-4-cyclopropylphenyl)-6,7-dimethyl-2,3-dihydro-1H-inden-1-yl)-3-methylazetidin-3-ol] | 1 to 10
27 | Cc1c(-c2ccc(C3CC3)c(Cl)c2)cc2c(c1C)C(N1CC(C)(O)C1)CC2 (single isomer, unassigned) [Compound 27b, 1-(5-(3-chloro-4-cyclopropylphenyl)-6,7-dimethyl-2,3-dihydro-1H-inden-1-yl)-3-methylazetidin-3-ol] | 10 to 100
28 | CC1(O)CCN(C2CCc3cc(-c4ccc(C5CC5)c(Cl)c4)ccc32)CC1 (stereo not shown) [Compound 6, 1-(5-(3-chloro-4-cyclopropylphenyl)-2,3-dihydro-1H-inden-1-yl)-4-methylpiperidin-4-ol] | 1000 to 10000
